Source: patent US20250206779A1, “ANGIOTENSIN-(1-9) ANALOGUE BASED ON D AMINO ACIDS, PHARMACEUTICAL COMPOSITIONS AND USES THEREOF” (UNIVERSIDAD DE CHILE, priority 2021, published 2025)
Where a SMILES comes first, the peptide text is derived from it. [ ]: non-standard residue; d: D form.

Key:
[1] = Stability in human serum determined by HPLC; assay type: in vitro ADME; conditions: male, 48 h incubation, 37° C., read-out: degradation after incubation with human serum
Protocol: The retro-inverse peptides were dissolved in PBS to obtain a final concentration of 1 mM. From this stock, an aliquot of 50 μL was taken and diluted to 450 μL of human serum (Sigma Aldrich from human male AB plasma, USA origin, sterile-filtered) at 37° C. under agitation, to obtain an initial concentration of […] and incubated for 48 h. Aliquots of 50 μL were extracted at 0, 5, 10 min and 1, 3, 6, 24 and 48 h and added to 200 μL of methanol at 4° C. for 30 min to precipitate serum proteins. The samples were then centrifuged at 13,000 g in Hermle Cooling Centrifuge Z 326 K 311.00 V01 at 4° C. for 30 min. The supernatants (approximately 200 μL) were obtained, placed in vials, and then analyzed by HPLC. All analyzes were performed on the Perkin Elmer auto sampler flexo HPLC, using a reverse phase 4.6×100 mm column with a particle size of […] (Waters XBridge Peptide BEH C18 Column). Mobile phase A was 100% acetonitrile and phase B was TFA 0.0004% in Milli-Q water. The initial composition of eluent was 5% A and 95% B for 1 min and then a linear gradient to reach 100% A in 19 min and then return to the initial composition in 4 min, with a total run time of 25 min. The eluent flow was 0.9 mL/min and the temperature of the column was adjusted to 26° C. L measurement was performed at a UV signal of 220 nm wavelength. Where 50 μL was injected per sample. Peptides were identified based on their retention time in the respective chromatogram obtained in the Chromera-HPLC flexar program.

[2] = tested on: spontaneously hypertensive rats (SHR); assay: Cardiac inflammation by monocyte infiltration in SHR, ED-1 immunohistochemistry; assay type: in vivo, rat; conditions: SHR, 1,200 ng/kg/min, 14 days
Protocol: (§1) Experimental animal model. All procedures were performed in accordance with the Guide for the Care and Use of Laboratory Animals published by the U.S. National Institutes of Health (NIH Publication 85 23, 1985) and approved by our Institutional Bioethics Committee. The animals were housed under the continuous professional monitoring of the Medical Veterinary staff in the animal facility of the Pontificia Universidad Católica de Chile, under the following conditions: 12-h light-dark cycle; 21° C. ambient temperature; 50% humidity; adequate ventilation; noise-free environment; and food and water ad libitum. Male spontaneously hypertensive rats (SHR, age 12 weeks) and normotensive Wistar Kyoto rats (WKY, 12 weeks age) were used. […] Systolic blood pressure (SBP), diastolic blood pressure (DBP) and body weight (BW) were measured at the end of the treatment period and the animals were then sacrificed.
Evaluation of cardiac inflammation by monocyte infiltration. Monocyte infiltration was assessed as a marker of cardiac inflammation. Monocytes were detected by immunohistochemistry using ED-1. […] In hypertense SHR increased ED-1 positive cells was detected in the hearts, indicating the presence of monocyte infiltration, a marker of cardiac inflammation.

[3] = tested on: spontaneously hypertensive rats (SHR); assay: Fibroblast proliferation in cardiac tissue of SHR, Ki67 immunohistochemistry; assay type: in vivo, rat; conditions: SHR, 1,200 ng/kg/min, 14 days
Protocol: as §1, with “libitum.” for “libitum. Male spontaneously hypertensive rats (SHR, age 12 weeks) and normotensive Wistar Kyoto rats (WKY, 12 weeks age) were used.”
Immunohistochemistry for Ki67. Proliferation of fibroblast, another marker of fibrosis, was assessed by measuring the presence of Ki-67 positive nuclei. […] Two blinder researchers counted manually positive cells in 10 high-power fields (×40). […] The percentage of positive Ki67 cells was calculated. As observed with the above cardiac fibrosis marker, collagen content assessed by picrosirius red staining, in hypertensive SHR, an increase in fibroblast with Ki-67 positive nuclei were found, confirming the occurrence of cardiac fibrosis.

[4] = tested on: spontaneously hypertensive rats (SHR); assay: Cardiac fibrosis in SHR, picrosirius red staining; assay type: in vivo, rat; conditions: SHR, 1,200 ng/kg/min, 14 days
Protocol: as §1
Evaluation of cardiac fibrosis. […] In hypertense SHR increased picrosirius red staining was detected in the hearts, indicating the presence of interstitial collagen, a marker of cardiac fibrosis.

Compound: CC[C@@H](C)[C@@H](NC(=O)[C@@H](Cc1c[nH]cn1)NC(=O)[C@H]1CCCN1C(=O)[C@@H](Cc1ccccc1)NC(=O)[C@H](N)Cc1c[nH]cn1)C(=O)N[C@H](Cc1ccc(O)cc1)C(=O)N[C@@H](C(=O)N[C@H](CCCNC(=N)N)C(=O)N[C@H](CC(=O)O)C(=O)O)C(C)C [retro-inverse angiotensin-(1-9), NH2-^DH^DF^DP^DH^DI^DY^DV^DR^DD-COOH] (H-[dH][dF][dP][dH][dI][dY][dV][dR][dD]-OH)
- metabolised at 48 h, 20 μM [1]: < 20%
- accumulation of ED-1 positive cells in cardiac tissue [2]: completely revert
- increase of fibroblast with Ki-67 positive nuclei induced by hypertension [3]: reversed the increase
- accumulation of collagen in cardiac tissue [4]: completely revert
